Results from patent US10168338B2, “Methods of identifying modulators of sestrin-gator-2 interaction for modulating mTORC1 activity” (Whitehead Institute for Biomedical Research, priority 2014, dated 2019).

Tests used:
[1] = biological target: T1, GATOR2-Sestrin2 interaction (Homo sapiens, UniProt P58004); assay: Sestrin2-GATOR2 interaction in HEK-293T cells after starvation/restimulation (co-immunoprecipitation); format: cell-based
T1 construct: To isolate the FLAG-WDR24/endogenous-Sestrin2 complex; endogenous in cells; host or cells: HEK-293T cells stably expressing FLAG-WDR24; Sestrin2 and the other GATOR2 subunits are endogenous
T1 sequence (P58004 1-480): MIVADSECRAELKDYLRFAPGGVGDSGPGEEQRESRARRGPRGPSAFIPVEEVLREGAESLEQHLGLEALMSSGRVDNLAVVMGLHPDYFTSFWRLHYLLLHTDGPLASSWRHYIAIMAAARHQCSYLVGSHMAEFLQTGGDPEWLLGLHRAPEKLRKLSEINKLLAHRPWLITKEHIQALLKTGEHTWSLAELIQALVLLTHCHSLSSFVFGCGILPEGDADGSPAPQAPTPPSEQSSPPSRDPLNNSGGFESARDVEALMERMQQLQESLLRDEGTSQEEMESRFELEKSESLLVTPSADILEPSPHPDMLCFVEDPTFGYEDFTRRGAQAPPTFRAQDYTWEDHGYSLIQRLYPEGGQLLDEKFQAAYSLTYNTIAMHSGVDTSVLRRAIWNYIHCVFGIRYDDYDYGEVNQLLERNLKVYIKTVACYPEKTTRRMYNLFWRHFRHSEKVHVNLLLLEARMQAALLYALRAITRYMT
Method: (§1) In order to determine the effect of amino acids on the GATOR2-Sestrin interaction, transfected cells were incubated in amino acid free RPMI for 50 minutes and then stimulated with amino acids for 10 minutes. For glucose starvation, cells were incubated in RPMI media lacking glucose but containing amino acids and dialyzed serum for 50 minutes, followed by a 10 minute restimulation with 5 mM D-Glucose. For insulin deprivation, cells were incubated in RPMI without serum for 50 minutes and restimulated with 1 μg/ml insulin for 10 minutes. Finally, when Torin1 or Rapamycin was used, cells were incubated with 250 nM of each throughout the starvation and restimulation period.
HEK-293T cells stably expressing FLAG-WDR24 or the control protein FLAG-metap2 (as described in Example 1) were starved for leucine, arginine, or all amino acids for 50 minutes. In some samples, cells were re-stimulated with leucine, arginine, or all amino acids for 10 minutes and then FLAG immunoprecipitates prepared from cell lysates. Immunoprecipitates and lysates were analyzed by immunoblotting for indicated proteins. Removal of either leucine or arginine from the cell media inhibited mTORC1 signaling, as indicated by S6K1 phosphorylation, to similar extents. Strikingly, however, only leucine starvation caused Sestrin2 to bind to GATOR2 inducing the interaction as effectively as complete amino acid starvation (FIG. 9A). […] Leucine starvation and stimulation also strongly regulated the interaction of endogenous Sestrin1, but not endogenous Sestrin3, with GATOR2 (Figure not shown).

[2] = biological target: T2, Sestrin-GATOR2 interaction (Homo sapiens, UniProt P58004); assay: Effect of specific amino acids on Sestrin-GATOR2 interaction (FLAG-WDR24 immunoprecipitation, immunoblot); format: cell-based; settings: HEK-293T stably expressing FLAG-WDR24; starvation/restimulation, pre- or post-lysis addition, washes of immunoprecipitates
T2 construct: To isolate the FLAG-WDR24/endogenous-Sestrin2 complex; endogenous in cells; host or cells: HEK-293T cells stably expressing FLAG-WDR24; Sestrin2 and the other GATOR2 subunits are endogenous
T2 sequence (P58004 1-480): T1 sequence (P58004 1-480)
Method: In order to further explore if specific amino acid levels affected the Sestrin-GATOR2 interaction, HEK-293T cells stably expressing the FLAG-tagged GATOR2 component WDR24 (and FLAG-tagged metap2 as a control) were starved of either all amino acids (ALL); only leucine, arginine, and lysine (LRK); only leucine (L); only arginine (R); or only lysine (K) for 50 minutes, or starved for 50 minutes and restimulated for 10 minutes with the indicated amino acids.
HEK-293T cells stably expressing the FLAG-tagged GATOR2 component WDR24 were starved of all amino acids for 50 minutes. Individual amino acids were added pre-lysis to the cell culture media or post-lysis to cell lysates prior to FLAG immunoprecipitation.
Finally, HEK-293T cells stably expressing the FLAG-tagged GATOR2 component WDR24 were starved of all amino acids for 50 minutes. Immunoprecipitates were subjected to washes containing the indicated amounts of leucine or arginine and analyzed along with cell lysates by immunoblotting for the indicated proteins as shown in FIG. 8C.

[3] = biological target: T3, Sestrin2 (Homo sapiens, UniProt P58004); assay: [3H]-labeled amino acid binding to FLAG-Sestrin2 immunoprecipitated from HEK-293T cells; settings: for Ki: 10 μM 3H-leucine, three experiments, read-out: inhibitory constant (Ki) for competing leucine binding to Sestrin2; for affinity for Sestrin2, times lower than the affinity of leucine: relative to leucine Kd
T3 construct: expressed in transfected cells; host or cells: HEK-293T, transient transfection of a pRK5-based cDNA plasmid, anti-FLAG immunoprecipitation
T3 sequence (P58004 1-480): T1 sequence (P58004 1-480)
Method: Four million HEK-293T cells were plated in a 15 cm plate four days prior to the experiment. Each plate yielded the protein for one sample. Forty-eight hours after plating, the cells were transfected via the polyethylenimine method (O. Boussif et al., PNAS (USA), 92:7297-7301 (1995)) with the pRK5-based cDNA expression plasmids indicated in the figures in the following amounts: 5 μgFLAG-Sestrin2; 12 μg of the negative control Rap2A; 5 μg WDR24; 2 μg WDR24 with 4 μg each of HA-Seh1L, HA-Sec13, HA-Mios, and HA-WDR59; 12 […] (CG11299-PD); 12 μgFLAG-Sestrin1.1; 12 μg FLAG-Sestrin1.2; 12 μg FLAG-Sestrin3; 12 μg FLAG-Sestrin2 mutants (L261A, E451A, S190A) and up to 20 μg total DNA with empty-PRK5. Forty-eight hours after transfection cells were lysed as described in Example 1. If multiple samples of the same type were represented in the experiment, the cell lysates were combined, mixed, and evenly distributed amongst the relevant tubes, to ensure equal protein amounts across samples of the same type.
Anti-FLAG immunoprecipitates were prepared as previously described, with the exception that, prior to incubation with lysates, the beads were blocked by rotating in 1 μg/μl bovine serum albumin (BSA) for 20 minutes at 4° C. and subsequently washed twice in lysis buffer. Thirty μl of the 50/50 slurry of beads in lysis buffer was added to each of the clarified cell lysates and incubated as previously described in Example 1.
For the binding assays, two tubes at a time were washed as previously indicated for immunoprecipitations. All the liquid was subsequently aspirated and a 15 μl aliquot of proteins bound to the beads was incubated for one hour on ice in cytosolic buffer (0.1% Triton, 40 mM HEPES pH 7.4, 10 mM NaCl, 150 mM KCl, 2.5 mM MgCl2) with the appropriate amount of [^3H]-labeled amino acids and unlabeled amino acids. Tubes were flicked every five minutes. At the end of one hour, the beads were briefly spun down, aspirated dry, and rapidly washed three times with binding wash buffer (0.1% Triton, 40 mM HEPES pH 7.4, 150 mM NaCl). The beads were aspirated dry again and resuspended in 85 μl of binding wash buffer. With a cut tip, each sample was mixed well and three 10 μl aliquots were separately quantified using a TriCarb® scintillation counter (PerkinElmer). This process was repeated in pairs for each sample, to ensure similar incubation and wash times for all samples analyzed across different experiments.
Amino acid affinities to Sestrin2 were determined by first normalizing the bound [^3H]-labeled amino acid concentrations across three separate binding assays performed with varying amounts of unlabeled amino acid competition. These values were plotted and fit to a hyperbolic equation ([…]) to estimate the IC50 value. Kd or Ki values were derived from the IC50 value using the equation: Kd or Ki=IC50/(1+([[^3H]Leucine])/Kd).

[4] = tested on: mTORC1; assay: mTORC1 signaling in HEK-293T cells (S6K1 phosphorylation immunoblot); format: cell-based, human; settings: v-ATPase inhibition
Method: Immunoprecipitated proteins were denatured by the addition of 50 μl of sample buffer and boiling for 5 minutes as described (Kim et al., 2002), resolved by 8%-16% SDS-PAGE, and analyzed by immunoblotting using the appropriate antibody (antibodies to phospho-T389 S6K1, S6K1, Sestrin2, mTOR, Mios and FLAG all obtained from Cell Signaling Technology; antibodies to WDR24 and WDR59 were generously provided by Jianxin Xie at Cell Signaling Technology).
as §1

[5] = biological target: T4, Sestrin2-GATOR2 complex (Homo sapiens, UniProt P58004); assay: Amino acids added directly to immunopurified Sestrin2-GATOR2 complexes (immunoblot); format: binding; settings: for effect on the Sestrin2-GATOR2 interaction in vitro: 300 μM each, added directly to FLAG immunoprecipitates; for concentration acting on Sestrin2-GATOR2 complex, fold greater than leucine: added to purified complexes, relative to leucine
T4 construct: To isolate the FLAG-WDR24/endogenous-Sestrin2 complex; endogenous in cells; host or cells: HEK-293T cells stably expressing FLAG-WDR24; Sestrin2 and the other GATOR2 subunits are endogenous
T4 sequence (P58004 1-480): T1 sequence (P58004 1-480)
Method: We next tested if leucine acts directly on the Sestrin2-GATOR2 complex.
HEK-293T cells stably expressing FLAG-WDR24 were starved for all amino acids for 50 minutes, lysed and subjected to anti-FLAG immunoprecipitation as described previously. The GATOR2-Sestrin2 complexes immobilized on the agarose beads were washed twice in lysis buffer with 500 mM NaCl, as previously described, and then incubated for 10 minutes in 1 mL of cytosolic buffer with the indicated concentrations of individual amino acids. The amount of GATOR2 and Sestrin2 that remained bound was assayed by SDS-PAGE and immunoblotting as described previously.

## CCC(=O)N1CCN(c2ccc(-n3c(=O)ccc4cnc5ccc(-c6cnc7ccccc7c6)cc5c43)cc2C(F)(F)F)CC1 [Torin1]
[1]; 250 nM throughout starvation and restimulation
  effect of pretreatment on the amino acid-induced decrease in the GATOR2-Sestrin2 interaction: did not prevent the amino acid-induced decrease in the GATOR2-Sestrin2 interaction

## N=C(N)NCCC[C@H](N)C(=O)O [arginine]
[2]
  disruption of the Sestrin-GATOR2 interaction: but not arginine or lysine, disrupts the Sestrin-GATOR2 interaction
[3]; FLAG-Sestrin2 from HEK-293T, competed by excess unlabeled leucine
  binding of radiolabeled amino acid to Sestrin2: did not bind

## C/C=C/[C@H]1O[C@@](O)([C@@H](C)[C@H](O)[C@H](C)[C@H]2OC(=O)/C(OC)=C/C(C)=C/[C@@H](C)[C@@H](O)[C@@H](CC)[C@@H](O)[C@H](C)C/C(C)=C/C=C/[C@@H]2OC)C[C@@H](O[C@H]2C[C@@H](O)[C@H](OC(N)=O)[C@@H](C)O2)[C@@H]1C [concanamycin A]
[1]; in the absence of amino acids
  effect on the interaction between Sestrin2 and GATOR2: reduced the interaction between Sestrin2 and GATOR2
[4]
  effect on mTORC1 signaling: decreased mTORC1 signaling

## CC[C@H](C)[C@H](N)C(=O)O [isoleucine]
[5]
  effect on the Sestrin2-GATOR2 interaction in vitro: had any effect on the Sestrin2-GATOR2 interaction
  concentration acting on Sestrin2-GATOR2 complex, fold greater than leucine: ~25 fold
[3]
  Ki: 616 ± 273 µM
  affinity for Sestrin2, times lower than the affinity of leucine: ~30 times

## NCCCC[C@H](N)C(=O)O [lysine]
[2]
  disruption of the Sestrin-GATOR2 interaction: but not arginine or lysine, disrupts the Sestrin-GATOR2 interaction

## CSCC[C@H](N)C(=O)O [methionine]
[5]
  effect on the Sestrin2-GATOR2 interaction in vitro: had any effect on the Sestrin2-GATOR2 interaction
  concentration acting on Sestrin2-GATOR2 complex, fold greater than leucine: approximately 10 fold
[3]
  Ki: 354 ± 118 µM
  affinity for Sestrin2, times lower than the affinity of leucine: approximately 18 times

## CC(C)[C@H](N)C(=O)O [valine]
[5]
  effect on the Sestrin2-GATOR2 interaction in vitro: had any effect on the Sestrin2-GATOR2 interaction

## insulin
[1]; serum-free 50 minutes, 1 μg/ml insulin 10 minutes
  regulation of the Sestrin2-GATOR2 interaction by insulin treatment: did not regulate the Sestrin2-GATOR2 interaction
